Test results reported in patent publication US20040175691A1, “Use of the KCNQ2 and KCNQ3 genes for the discovery of agents useful in the treatment of neurological disorders” (priority 1998, published 2004).

Key:
[1] = biological target: T1, KCNQ2 + KCNQ3 (UniProt O43526+O88944, DEL417-446); test: Blockade of KCNQ2+KCNQ3 channels expressed in Xenopus oocytes; format: cell-based, human KCNQ2, rat KCNQ3; settings: mean±s.e.m.
T1 construct: Full-length KCNQ2 cDNAs were amplified from adult human brain cDNA; Multiple full-length cDNA clones were amplified in independent PCR reactions from rat SCG cDNA; expressed in transfected cells; host or cells: Xenopus oocytes injected with cRNA
Procedure: Method: Full-length KCNQ2 cDNAs were amplified from adult human brain cDNA using the following primers ([…], […]) with the Expand Fidelity enzyme mixture (Boehringer Mannheim, Indianapolis). […] This region is also alternatively spliced in the KCNQ2 cDNA clone described by Biervert et al. (1998). Preparation, injection of cRNA and recording from oocytes was performed at room temperature as described previously (Dixon et al. 1996). The standard extracellular recording solution contained: 82 mM NaCl, 2 mM KCl, 1.8 mM CaCl2, 1 mM MgCl2, and 5 mM Na-HEPES (pH 7.6). Data collection and analysis were performed using pClamp software (Axon Instruments, Foster City, Calif.).
Holding potential was −60 mV and the cell was repetitively depolarized to −30 mV for 1 minute to reach steady-state blockade. Tail currents were recorded at −50 mV.
IC50 values are all expressed in μM, mean±s.e.m. In cases where the IC50 values were greater than 100 μM the exact value is not reported due to limited solubility in the drug.

[2] = biological target: T2, erg3 (Rattus norvegicus, UniProt O54852); test: Blockade of cloned erg3 channel in oocytes; format: cell-based; settings: mean±s.e.m.
T2 construct: expressed in transfected cells; host or cells: oocytes (Xenopus)
T2 sequence (O54852 1-1195): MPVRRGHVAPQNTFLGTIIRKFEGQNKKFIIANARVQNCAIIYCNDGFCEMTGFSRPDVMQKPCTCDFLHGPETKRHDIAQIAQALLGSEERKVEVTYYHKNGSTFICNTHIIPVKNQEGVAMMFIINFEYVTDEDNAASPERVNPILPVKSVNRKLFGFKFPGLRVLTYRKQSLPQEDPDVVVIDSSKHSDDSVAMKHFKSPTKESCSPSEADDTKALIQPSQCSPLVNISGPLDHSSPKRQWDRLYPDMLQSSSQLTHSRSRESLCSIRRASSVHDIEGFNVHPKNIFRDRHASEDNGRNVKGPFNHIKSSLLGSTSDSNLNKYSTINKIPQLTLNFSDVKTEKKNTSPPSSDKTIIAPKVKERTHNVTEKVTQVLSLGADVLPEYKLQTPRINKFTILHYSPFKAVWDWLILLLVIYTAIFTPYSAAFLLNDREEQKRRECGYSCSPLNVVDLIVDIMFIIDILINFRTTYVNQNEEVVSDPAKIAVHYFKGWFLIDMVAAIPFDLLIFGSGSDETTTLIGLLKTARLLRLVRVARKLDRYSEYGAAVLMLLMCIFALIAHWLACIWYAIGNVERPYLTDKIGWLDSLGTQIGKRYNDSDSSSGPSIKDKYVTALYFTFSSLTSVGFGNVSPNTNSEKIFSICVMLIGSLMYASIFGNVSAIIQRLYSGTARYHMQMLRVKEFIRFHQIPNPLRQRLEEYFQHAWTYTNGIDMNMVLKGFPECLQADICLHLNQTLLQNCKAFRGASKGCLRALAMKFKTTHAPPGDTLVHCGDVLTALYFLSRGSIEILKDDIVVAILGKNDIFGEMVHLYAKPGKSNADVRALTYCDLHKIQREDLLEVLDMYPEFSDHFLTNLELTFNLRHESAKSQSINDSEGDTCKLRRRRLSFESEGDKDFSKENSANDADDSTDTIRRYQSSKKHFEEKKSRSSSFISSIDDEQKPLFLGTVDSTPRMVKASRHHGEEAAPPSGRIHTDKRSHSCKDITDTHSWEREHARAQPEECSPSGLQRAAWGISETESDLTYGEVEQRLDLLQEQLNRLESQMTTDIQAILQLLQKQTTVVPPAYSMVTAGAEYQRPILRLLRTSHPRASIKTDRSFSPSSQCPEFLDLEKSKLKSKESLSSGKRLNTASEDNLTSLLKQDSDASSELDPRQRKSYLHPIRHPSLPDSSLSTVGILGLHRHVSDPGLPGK

[3] = biological target: T3, eag1 (Rattus norvegicus, UniProt Q63472); test: Blockade of cloned eag1 channel in oocytes; format: cell-based; settings: mean±s.e.m., blockade incomplete
T3 construct: expressed in transfected cells; host or cells: oocytes (Xenopus)
T3 sequence (Q63472 1-962): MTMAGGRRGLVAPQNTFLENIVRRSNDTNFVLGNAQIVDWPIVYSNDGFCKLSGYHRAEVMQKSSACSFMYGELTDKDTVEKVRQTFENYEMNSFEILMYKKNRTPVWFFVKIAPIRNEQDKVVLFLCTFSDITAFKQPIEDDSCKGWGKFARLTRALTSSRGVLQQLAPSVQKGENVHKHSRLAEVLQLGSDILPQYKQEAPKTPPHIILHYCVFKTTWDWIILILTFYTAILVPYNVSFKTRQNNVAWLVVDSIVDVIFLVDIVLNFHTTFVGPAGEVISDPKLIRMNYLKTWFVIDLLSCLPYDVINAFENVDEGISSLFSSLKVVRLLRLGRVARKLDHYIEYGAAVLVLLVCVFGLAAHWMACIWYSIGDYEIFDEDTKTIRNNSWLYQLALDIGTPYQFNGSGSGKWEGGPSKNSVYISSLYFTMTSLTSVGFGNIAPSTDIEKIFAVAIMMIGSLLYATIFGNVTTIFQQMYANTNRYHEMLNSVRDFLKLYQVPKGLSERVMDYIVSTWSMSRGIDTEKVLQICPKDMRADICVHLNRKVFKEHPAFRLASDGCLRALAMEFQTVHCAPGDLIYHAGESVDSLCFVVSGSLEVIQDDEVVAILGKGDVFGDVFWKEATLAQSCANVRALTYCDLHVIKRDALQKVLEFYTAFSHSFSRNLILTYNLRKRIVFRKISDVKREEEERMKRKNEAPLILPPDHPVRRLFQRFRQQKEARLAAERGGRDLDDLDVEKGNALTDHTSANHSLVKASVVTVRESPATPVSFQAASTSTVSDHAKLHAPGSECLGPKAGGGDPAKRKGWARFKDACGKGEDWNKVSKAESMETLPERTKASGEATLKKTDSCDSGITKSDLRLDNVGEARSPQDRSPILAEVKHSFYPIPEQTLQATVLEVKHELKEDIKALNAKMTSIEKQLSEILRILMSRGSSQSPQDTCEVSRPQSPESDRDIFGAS

## O=C1N(c2ccccc2)c2ccccc2C1(Cc1ccncc1)Cc1ccncc1 [Linopirdine, 3,3-bis(4-pyridinylmethyl)-1-phenylindolin-2-one]
[1]
  IC50: 4000 ± 500 nM
[2]
  IC50: 85 ± 5 µM
[3]
  IC50: 31 ± 3 µM

## O=C1c2ccccc2C(Cc2ccncc2)(Cc2ccncc2)c2ccccc21 [XE991, 10,10-bis(4-pyridinylmethyl)-9(10H)-anthracenone]
[1]
  IC50: 600 ± 100 nM
[2]
  IC50: > 100 µM
[3]
  IC50: 49 ± 6 µM
